The text below walks through data of patent US20040023878A1, “Gnrh analogues for treatment of urinary incontinence” (priority 2003, published 2004).

“And” between values parts separate entries of the source, which are not always exact repeats. Equal entries are not always repeated. “Also recorded” adds a separate entry of the source. Structures can show the parent of a compound that is named as a salt. A value given as a limit tells only on which side of the number the result lay.

Data set [1] deals with excessive growth of the undercoat (baby coat) due to spaying. The data set can be described thus: Two cocker spaniel bitches with excessive growth of the undercoat due to spaying, slow-release s.c. implant. The settings on record: 5 mg slow release s.c. It is filed as in vivo, dog. As for the experimental part: Two cocker spaniel bitches belonging to the same owner were showing excessive growth of the undercoat due to spaying. […] Both dogs were first clinically examined and thereafter a GnRH analogue (Deslorelin) in a dosage of 5 mg, in slow release form, was subcutaneously implanted between the shoulder blades.

The test system of data set [2] is bitches suffering from urinary incontinence after spaying. The data set can be described thus: Fifteen bitches with urinary incontinence after spaying, given a slow-release s.c. GnRH analogue implant plus phenylpropanolamine for a limited period. It is filed as in vivo, dog. The settings on record: for Side effects: dash = none. As for the experimental part: Additionally, for a limited period the dogs were treated with phenylpropanolamine in a dosage of 1.5 mg/kg BW tid orally.
After discontinuation of the shortacting phenylpropanolamine 8 bitches remained continent. Their continence was therefore achieved solely by the treatment with the composition as described in the present invention. Seven out of fifteen dogs seemed to be much happier and in none of the dogs did the general condition deteriorate. […] The respective results are shown in more detail in table 1.

Data set [3] deals with urinary incontinence of the bitch. The settings on record: 1.5 mg/kg BW p.o. given every 8 hours; incontinent spayed bitches; cited from earlier work.
For data set [4], the system named is dogs suffering from urinary incontinence. The data set can be described thus: Double-blind, placebo-control study with open label phase in 16 client owned dogs suffering from urinary incontinence. It is filed as in vivo, dog. The settings on record: ongoing study. As for the experimental part:
In a second ongoing study, 16 client owned dogs suffering from urinary incontinence were enrolled in a double-blind, placebo-control study. In the initial phase of the study, dogs were randomly assigned to treatment with a long-acting GnRH analogue (leuprolide acetate) or placebo (dog owners and the investigators were blinded to treatment) along with a short course of therapy with phenylpropanolamine. 5 weeks after treatment with drug or placebo, dogs were evaluated and, if not fully continent, treated with a long-acting GnRH analogue (leuprolide acetate) in an open label phase of the study. To date only 1 of 10 dogs treated with placebo became continent vs. […] treated with drug during the blinded portion of the study. Overall, the results generated thus far indicate […] dogs treated with the long-acting GnRH analogue became continent and […] improved after discontinuation of the short acting phenylpropanolamine. Only 1 dog of 15 treated with the GnRH analogue was considered not to have improved following treatment with the drug.

The test system of another data set is stress incontinence. The data set can be described thus: Menopausal person with stress incontinence, 24 hour pad test. Type of data set: in vivo, human. The settings on record: single dose 3.75 mg, one person. The protocol: A second menopausal person, suffering from stress incontinence for at least 6 years, was treated with a single dose of 3.75 mg of leuprolide acetate. 24 hour pad tests conducted prior to treatment with the drug indicated they lost between 10 and 130 ml of urine on a daily basis due to their incontinence.

The test system of data set [5] is urge incontinence and hotflushes. The data set can be described thus: Perimenopausal person with urge incontinence and hot flushes. It is filed as in vivo, human. The settings on record: 3.75 mg; one perimenopausal person.
Where [6] appears, read: 6 mg slow release s.c. implant, no 'with PPA' mark, individual bitches.
Setting [7] is: 12 mg slow release s.c. implant, no 'with PPA' mark, individual bitches.
Where [8] appears, read: 11,25 mg slow release s.c. implant, no 'with PPA' mark, individual bitches, listed as Leuprorelin acetate.
[9] abbreviates: 11,25 mg slow release s.c. implant, with PPA, individual bitch.

For `CCNC(=O)[C@@H]1CCCN1C(=O)[C@H](CCCN=C(N)N)NC(=O)[C@H](CC(C)C)NC(=O)[C@@H](Cc1c[nH]c2ccccc12)NC(=O)[C@H](Cc1ccc(O)cc1)NC(=O)[C@H](CO)NC(=O)[C@H](Cc1c[nH]c2ccccc12)NC(=O)[C@H](Cc1cnc[nH]1)NC(=O)[C@@H]1CCC(=O)N1` [Deslorelin], the Coat quality result in data set [1] (5 weeks after the injection, both dogs) is “obvious amelioration of the coat quality”. Moreover, in data set [1] (21 weeks after injection), the “Signs of baby coat” value is given as “no signes of “baby coat” were apparent anymore”.

In the case of Deslorelin acetate [Deslorelinacetate], the Side effects entry in data set [2] (6 mg slow release s.c. implant, individual bitches) is “More playfull”; in data set [2] (12 mg slow release s.c. implant, individual bitches), “less aggressive; also recorded: more activ”. Further, the “Duration of effect after treatment” value in data set [2] (setting [6]) was >47 days and >340 days; in data set [2] (setting [7]) it was 64 days and >64 days. Moreover, the Effect on incontinence in data set [2] (setting [6]) is 100%; in data set [2] (6 mg slow release s.c. implant, with PPA, individual bitch), 100%; in data set [2] (setting [7]) it was 100%; in data set [2] (12 mg slow release s.c. implant, with PPA, individual bitches), 80% and 100% (2×).

Take `CC(N)C(O)c1ccccc1` (centres unmarked) [phenylpropanolamine]: in data set [3], the Continence achieved is listed as 74% and the Showed some improvement result was “at least 24%”.

In the case of `CCNC(=O)[C@@H]1CCCN1C(=O)[C@H](CCCNC(=N)N)NC(=O)[C@H](CC(C)C)NC(=O)[C@@H](CC(C)C)NC(=O)[C@H](Cc1ccc(O)cc1)NC(=O)[C@H](CO)NC(=O)[C@H](Cc1c[nH]c2ccccc12)NC(=O)[C@H](Cc1c[nH]cn1)NC(=O)[C@@H]1CCC(=O)N1` [Leuprorelinacetate, leuprolide acetate], in data set [4] (of 15 dogs treated (blinded plus open label)), the “Dogs that became continent after discontinuation of phenylpropanolamine, overall” value came out at 6 dogs. In addition, in data set [4] (of 15 treated), the “Dogs considered not to have improved following treatment” value came out at 1 dog. Also, the “Remaining dogs that improved after discontinuation of phenylpropanolamine” value in data set [4] (of the remaining dogs of 15 treated) was found to be 9 dogs. In data set [4] (printed '3 to 8 dogs treated with drug', 5 weeks after treatment, with short course of phenylpropanolamine), the “Dogs that became continent during the blinded portion of the study” value was found to be 3 dogs. For the same compound, in the data set with stress incontinence (2 weeks after treatment, before treatment between 10 and 130 ml daily), the “Daily urine loss, pad test” value was found to be 1 mL. Also, in the data set on stress incontinence, the “Patient's satisfaction with the effects of the therapy” value is “very satisfied”. In addition, the “Duration of effect after treatment” value was 0 days in data set [2] (11,25 mg slow release s.c. implant, no 'with PPA' mark, individual bitches); >14 days in data set [2] (setting [8]); >64 days in data set [2] (setting [9]). The Effect on incontinence in data set [2] (setting [8]) and in data set [2] (setting [9]) was 100% throughout.

`CN[C@@H](C)[C@H](O)c1ccccc1` [ephedrinhydrochloride]: in data set [3], the Continence achieved is 74% and the Showed some improvement result is given as “at least 24%”.

Consider “Triptorelin acetate [Triptorelinacetate]”, for which the “Duration of effect after treatment” value in data set [2] (3,75 mg slow release s.c. implant (dose too low), individual bitch) is on record as 0. The “Period of improvement of symptoms” value in data set [5] is recorded as “about 4 weeks”.

With Buserelin acetate [Buserelinacetate], in data set [2] (6,3 mg slow release s.c. implant, individual bitches), the “Duration of effect after treatment” value is 44 days and 83 days. The Effect on incontinence in data set [2] (6,3 mg slow release s.c. implant, no 'with PPA' mark, individual bitches) is 100%.
